From ChEMBL document CHEMBL1201862, “PubChem BioAssay data set” (2004)
Activity calls are given as the source filed them.

Assays:
Type in all cases: functional
[1] = molecular target: Mitogen-activated protein kinase kinase kinase kinase 2 (Homo sapiens, UniProt Q12851);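 further: measured as one member of a kinome-wide kinase panel, with MAP4K2 as the panel entry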
[2] = molecular target: Glycogen synthase kinase-3 alpha (Homo sapiens, UniProt P49840);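 further: GSK3A result taken from a broad kinome-wide kinase panel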
[3] = molecular target: Dual specificity mitogen-activated protein kinase kinase 1 (Homo sapiens, UniProt Q02750); assay: Navigating the Kinome. Panel member name: MAP2K1
[4] = molecular target: Macrophage-stimulating protein receptor (Homo sapiens, UniProt Q04912); assay: Navigating the Kinome. Panel member name: MST1R
Chain of Macrophage-stimulating protein receptor (Q04912 25-304 limits assumed): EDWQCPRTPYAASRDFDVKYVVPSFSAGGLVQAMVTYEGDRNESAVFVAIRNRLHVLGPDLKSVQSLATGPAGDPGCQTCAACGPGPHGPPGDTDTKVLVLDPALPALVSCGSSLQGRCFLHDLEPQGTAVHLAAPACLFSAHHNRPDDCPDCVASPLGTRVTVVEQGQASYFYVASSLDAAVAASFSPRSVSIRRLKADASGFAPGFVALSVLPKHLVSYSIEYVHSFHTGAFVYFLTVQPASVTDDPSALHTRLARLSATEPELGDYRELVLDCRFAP
Chain of Macrophage-stimulating protein receptor (Q04912 310-1400 limits assumed): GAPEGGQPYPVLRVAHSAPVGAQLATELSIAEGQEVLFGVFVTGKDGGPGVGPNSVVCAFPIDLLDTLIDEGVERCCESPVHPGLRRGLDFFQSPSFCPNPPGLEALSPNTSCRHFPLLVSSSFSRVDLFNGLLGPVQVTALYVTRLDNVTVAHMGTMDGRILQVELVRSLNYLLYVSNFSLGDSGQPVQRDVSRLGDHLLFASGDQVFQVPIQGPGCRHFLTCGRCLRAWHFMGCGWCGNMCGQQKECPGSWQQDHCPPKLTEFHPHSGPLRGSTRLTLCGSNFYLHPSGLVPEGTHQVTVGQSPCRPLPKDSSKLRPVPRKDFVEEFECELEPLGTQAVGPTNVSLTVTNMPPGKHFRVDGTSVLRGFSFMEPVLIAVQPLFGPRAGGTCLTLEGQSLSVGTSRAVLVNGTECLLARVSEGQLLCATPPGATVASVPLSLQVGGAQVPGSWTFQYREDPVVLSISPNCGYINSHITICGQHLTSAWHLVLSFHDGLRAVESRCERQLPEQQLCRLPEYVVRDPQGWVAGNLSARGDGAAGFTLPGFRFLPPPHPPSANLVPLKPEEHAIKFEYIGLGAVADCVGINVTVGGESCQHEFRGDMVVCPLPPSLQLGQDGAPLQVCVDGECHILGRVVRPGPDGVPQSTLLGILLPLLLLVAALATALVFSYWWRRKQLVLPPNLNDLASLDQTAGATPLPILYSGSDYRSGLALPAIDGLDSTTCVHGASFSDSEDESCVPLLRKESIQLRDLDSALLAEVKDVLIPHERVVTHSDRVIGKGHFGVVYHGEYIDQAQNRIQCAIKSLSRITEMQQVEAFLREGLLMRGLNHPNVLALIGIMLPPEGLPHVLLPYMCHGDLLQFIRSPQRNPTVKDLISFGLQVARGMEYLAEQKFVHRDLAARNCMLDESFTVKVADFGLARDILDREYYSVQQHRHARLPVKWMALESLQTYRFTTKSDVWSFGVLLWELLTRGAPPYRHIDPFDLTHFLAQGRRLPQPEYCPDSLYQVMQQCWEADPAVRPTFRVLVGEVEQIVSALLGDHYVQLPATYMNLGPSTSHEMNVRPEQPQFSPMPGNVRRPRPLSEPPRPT

[5] = molecular target: 5'-AMP-activated protein kinase catalytic subunit alpha-1 (Homo sapiens, UniProt Q13131)
[6] = molecular target: Glycogen synthase kinase-3 beta (Homo sapiens, UniProt P49841);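 further: value comes from a broad kinome profiling panel, with GSK3B as the panel member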
[7] = molecular target: Tyrosine-protein kinase JAK3 (Homo sapiens, UniProt P52333)
Chain of Tyrosine-protein kinase JAK3 (P52333 whole entry): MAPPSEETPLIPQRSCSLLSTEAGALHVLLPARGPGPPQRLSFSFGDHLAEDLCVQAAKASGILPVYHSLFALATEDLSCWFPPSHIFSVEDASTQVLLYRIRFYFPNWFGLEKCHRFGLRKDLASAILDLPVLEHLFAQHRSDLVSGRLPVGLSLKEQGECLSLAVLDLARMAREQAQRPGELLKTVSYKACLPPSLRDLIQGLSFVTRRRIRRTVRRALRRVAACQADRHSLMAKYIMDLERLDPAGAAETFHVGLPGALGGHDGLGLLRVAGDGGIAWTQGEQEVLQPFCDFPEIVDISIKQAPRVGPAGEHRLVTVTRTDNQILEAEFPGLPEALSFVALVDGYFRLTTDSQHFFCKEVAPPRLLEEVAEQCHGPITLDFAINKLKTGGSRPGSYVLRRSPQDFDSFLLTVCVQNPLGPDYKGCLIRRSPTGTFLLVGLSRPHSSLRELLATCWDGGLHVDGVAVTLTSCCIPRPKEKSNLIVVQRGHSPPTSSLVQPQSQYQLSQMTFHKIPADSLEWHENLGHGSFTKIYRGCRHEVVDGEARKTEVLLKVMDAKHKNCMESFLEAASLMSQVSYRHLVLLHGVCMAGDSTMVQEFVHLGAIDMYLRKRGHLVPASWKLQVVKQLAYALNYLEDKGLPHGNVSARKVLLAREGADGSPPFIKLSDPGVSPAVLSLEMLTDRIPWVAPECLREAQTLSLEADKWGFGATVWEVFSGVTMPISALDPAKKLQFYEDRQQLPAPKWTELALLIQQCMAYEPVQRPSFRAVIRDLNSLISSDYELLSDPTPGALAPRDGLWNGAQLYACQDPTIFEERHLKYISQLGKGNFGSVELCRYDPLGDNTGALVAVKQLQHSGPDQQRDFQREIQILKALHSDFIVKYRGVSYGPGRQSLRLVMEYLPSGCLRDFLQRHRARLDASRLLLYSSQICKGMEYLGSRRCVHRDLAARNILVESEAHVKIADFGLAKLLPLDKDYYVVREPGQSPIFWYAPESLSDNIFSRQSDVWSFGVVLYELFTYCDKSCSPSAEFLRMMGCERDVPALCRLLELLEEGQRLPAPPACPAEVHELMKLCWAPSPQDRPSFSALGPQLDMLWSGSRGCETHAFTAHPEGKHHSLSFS

[8] = molecular target: Serine/threonine-protein kinase pim-1 (Homo sapiens, UniProt P11309)
[9] = molecular target: Insulin-like growth factor 1 receptor (Homo sapiens, UniProt P08069); assay: Navigating the Kinome. Panel member name: IGF1R
[10] = molecular target: Tyrosine-protein kinase Lck (Homo sapiens, UniProt P06239);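 further: lck was assayed as one member of a kinase panel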
Chain of Tyrosine-protein kinase Lck (P06239 whole entry): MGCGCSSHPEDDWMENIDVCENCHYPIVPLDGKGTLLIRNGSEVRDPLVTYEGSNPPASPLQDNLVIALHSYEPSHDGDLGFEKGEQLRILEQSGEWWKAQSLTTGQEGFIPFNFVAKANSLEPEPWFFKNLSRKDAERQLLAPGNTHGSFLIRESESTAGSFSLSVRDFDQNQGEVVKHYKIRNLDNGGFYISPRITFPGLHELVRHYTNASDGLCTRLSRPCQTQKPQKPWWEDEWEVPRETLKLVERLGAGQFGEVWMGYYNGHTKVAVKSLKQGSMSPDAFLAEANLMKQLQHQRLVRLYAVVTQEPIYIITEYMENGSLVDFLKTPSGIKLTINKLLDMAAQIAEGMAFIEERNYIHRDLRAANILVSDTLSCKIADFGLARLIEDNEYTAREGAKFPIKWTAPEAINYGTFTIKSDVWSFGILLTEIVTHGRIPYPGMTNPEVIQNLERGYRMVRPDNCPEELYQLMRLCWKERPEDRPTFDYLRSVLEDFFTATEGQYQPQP

[11] = molecular target: Serine/threonine-protein kinase PAK 4 (Homo sapiens, UniProt O96013);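 further: value obtained within a kinome profiling panel in which PAK4 was one of the panel members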
Chain of Serine/threonine-protein kinase PAK 4 (O96013 whole entry): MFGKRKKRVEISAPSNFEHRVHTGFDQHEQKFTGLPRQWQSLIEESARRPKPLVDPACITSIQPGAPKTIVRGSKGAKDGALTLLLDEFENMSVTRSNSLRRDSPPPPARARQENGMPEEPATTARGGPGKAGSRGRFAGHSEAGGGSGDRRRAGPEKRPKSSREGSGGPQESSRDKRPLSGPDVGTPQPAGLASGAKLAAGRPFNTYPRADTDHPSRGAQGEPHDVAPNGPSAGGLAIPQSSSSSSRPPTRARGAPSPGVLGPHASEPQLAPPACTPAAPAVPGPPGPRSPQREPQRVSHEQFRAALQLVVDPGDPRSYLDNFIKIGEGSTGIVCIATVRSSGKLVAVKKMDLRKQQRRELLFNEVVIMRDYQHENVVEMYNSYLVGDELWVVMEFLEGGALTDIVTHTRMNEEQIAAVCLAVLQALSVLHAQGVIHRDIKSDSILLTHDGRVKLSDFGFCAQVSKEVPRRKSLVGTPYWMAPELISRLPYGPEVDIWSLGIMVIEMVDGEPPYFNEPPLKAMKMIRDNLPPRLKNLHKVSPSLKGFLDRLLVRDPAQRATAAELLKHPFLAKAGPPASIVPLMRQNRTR

[12] = molecular target: Mitogen-activated protein kinase kinase kinase kinase 5 (Homo sapiens, UniProt Q9Y4K4);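 further: measured as one member of a kinome-spanning kinase panel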
[13] = molecular target: Cyclin-dependent kinase 9 (Homo sapiens, UniProt P50750);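 further: value from the CDK9 entry of a kinome-spanning kinase panel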
[14] = molecular target: Casein kinase I isoform alpha (Homo sapiens, UniProt P48729)
[15] = molecular target: Tyrosine-protein kinase Fyn (Homo sapiens, UniProt P06241)
[16] = molecular target: Vascular endothelial growth factor receptor 1 (Homo sapiens, UniProt P17948);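 further: measured within a kinome-wide profiling panel, FLT1 as the panel member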
[17] = molecular target: Inhibitor of nuclear factor kappa-B kinase subunit epsilon (Homo sapiens, UniProt Q14164); assay: Navigating the Kinome. Panel member name: IKBKE
[18] = molecular target: Tyrosine-protein kinase JAK2 (Homo sapiens, UniProt O60674);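 further: JAK2 tested as one member of a kinase panel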
[19] = molecular target: Fibroblast growth factor receptor 1 (Homo sapiens, UniProt P11362)
[20] = molecular target: Cyclin-dependent kinase 8 (Homo sapiens, UniProt P49336); assay: Navigating the Kinome. Panel member name: CDK8
[21] = molecular target: Death-associated protein kinase 3 (Homo sapiens, UniProt O43293);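 further: measured as one member of a kinome-wide profiling panel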
[22] = molecular target: Cyclin-dependent kinase 19 (Homo sapiens, UniProt Q9BWU1); assay: Navigating the Kinome. Panel member name: CDC2L6
[23] = molecular target: Dual specificity protein kinase CLK2 (Homo sapiens, UniProt P49760)
[24] = molecular target: Leukocyte tyrosine kinase receptor (Homo sapiens, UniProt P29376); assay: Navigating the Kinome. Panel member name: LTK
[25] = molecular target: cAMP-dependent protein kinase catalytic subunit PRKX (Homo sapiens, UniProt P51817)
[26] = molecular target: ALK tyrosine kinase receptor (Homo sapiens, UniProt Q9UM73);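 further: ALK tested as one member of a kinase panel screen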
[27] = molecular target: Calcium/calmodulin-dependent protein kinase type II subunit alpha (Homo sapiens, UniProt Q9UQM7); assay: Navigating the Kinome. Panel member name: CAMK2A
[28] = molecular target: Vascular endothelial growth factor receptor 2 (Homo sapiens, UniProt P35968)
[29] = molecular target: G protein-coupled receptor kinase 5 (Homo sapiens, UniProt P34947); assay: Navigating the Kinome. Panel member name: GPRK5
Chain of G protein-coupled receptor kinase 5 (P34947 whole entry): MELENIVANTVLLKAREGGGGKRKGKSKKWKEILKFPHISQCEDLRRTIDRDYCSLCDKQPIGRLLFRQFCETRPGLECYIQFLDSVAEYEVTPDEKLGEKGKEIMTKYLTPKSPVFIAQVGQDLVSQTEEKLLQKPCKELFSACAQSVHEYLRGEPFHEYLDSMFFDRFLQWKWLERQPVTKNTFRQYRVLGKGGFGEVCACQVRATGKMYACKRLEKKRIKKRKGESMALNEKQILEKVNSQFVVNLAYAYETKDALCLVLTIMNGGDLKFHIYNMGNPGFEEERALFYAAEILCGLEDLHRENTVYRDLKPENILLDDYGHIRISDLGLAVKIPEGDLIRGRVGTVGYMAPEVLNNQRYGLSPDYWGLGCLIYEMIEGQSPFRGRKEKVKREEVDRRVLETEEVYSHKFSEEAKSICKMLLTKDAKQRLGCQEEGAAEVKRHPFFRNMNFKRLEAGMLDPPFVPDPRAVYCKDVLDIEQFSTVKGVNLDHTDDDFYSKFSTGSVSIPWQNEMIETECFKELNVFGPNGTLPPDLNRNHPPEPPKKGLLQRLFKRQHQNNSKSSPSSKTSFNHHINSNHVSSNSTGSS

[30] = molecular target: Dual specificity mitogen-activated protein kinase kinase 2 (Homo sapiens, UniProt P36507); assay: Navigating the Kinome. Panel member name: MAP2K2
[31] = molecular target: Leucine-rich repeat serine/threonine-protein kinase 2 (Homo sapiens, UniProt Q5S007);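 further: value from a broad kinome-wide panel profiling study in which LRRK2 was one of the kinases tested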
[32] = molecular target: Dual specificity protein kinase CLK4 (Homo sapiens, UniProt Q9HAZ1)
[33] = molecular target: MAP/microtubule affinity-regulating kinase 3 (Homo sapiens, UniProt P27448);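 further: MARK3 affinity measured as one member of a kinome panel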
[34] = molecular target: Mitogen-activated protein kinase 9 (Homo sapiens, UniProt P45984);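 further: value from a kinome panel profiling assay, MAPK9 panel entry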
[35] = molecular target: Aurora kinase A (Homo sapiens, UniProt O14965);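 further: value from the Navigating the Kinome kinase panel profiling, panel entry STK6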
[36] = molecular target: Tyrosine-protein kinase receptor TYRO3 (Homo sapiens, UniProt Q06418);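 further: TYRO3 value obtained as one member of a kinome-wide profiling panel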
[37] = molecular target: Proto-oncogene tyrosine-protein kinase receptor Ret (Homo sapiens, UniProt P07949);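 further: measured within a kinome-wide profiling panel, RET as the panel member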
[38] = molecular target: Receptor-type tyrosine-protein kinase FLT3 (Homo sapiens, UniProt P36888);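 further: FLT3 was tested as one member of a kinome-wide kinase panel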
[39] = molecular target: Mitogen-activated protein kinase 8 (Homo sapiens, UniProt P45983);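 further: value comes from one member of a kinome-wide kinase profiling panel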
[40] = molecular target: Dual specificity tyrosine-phosphorylation-regulated kinase 1A (Homo sapiens, UniProt Q13627);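 further: measured against DYRK1A as one member of a broad kinome profiling panel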
[41] = molecular target: Serine/threonine-protein kinase TAO1 (Homo sapiens, UniProt Q7L7X3)
[42] = molecular target: Platelet-derived growth factor receptor alpha (Homo sapiens, UniProt P16234); assay: Navigating the Kinome. Panel member name: PDGFRA
[43] = molecular target: Macrophage colony-stimulating factor 1 receptor (Homo sapiens, UniProt P07333);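 further: value comes from the Navigating the Kinome screening panel, CSF1R member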
[44] = molecular target: Ribosomal protein S6 kinase alpha-3 (Homo sapiens, UniProt P51812);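 further: measured within a kinome-wide profiling panel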
[45] = molecular target: Tyrosine-protein kinase ABL1 (Homo sapiens, UniProt P00519)
[46] = molecular target: cAMP-dependent protein kinase catalytic subunit alpha (Homo sapiens, UniProt P17612)
[47] = molecular target: Serine/threonine-protein kinase TBK1 (Homo sapiens, UniProt Q9UHD2); assay: Navigating the Kinome. Panel member name: TBK1
[48] = molecular target: Mitogen-activated protein kinase kinase kinase kinase 4 (Homo sapiens, UniProt O95819)
[49] = molecular target: Mitogen-activated protein kinase 14 (Homo sapiens, UniProt Q16539);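 further: part of a kinome-wide panel, MAPK14 entry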
[50] = molecular target: Melanin-concentrating hormone receptor 1 (Homo sapiens, UniProt Q99705); assay: Late-stage fluorescence-based counterscreen for antagonists of the G-protein coupled receptor 7 (GPR7): cell-based dose response assay to identify antagonists of the melanin-concentrating hormone receptor 1 (MCHR1) Set 5.
[51] = molecular target: Neuropeptides B/W receptor type 1 (Homo sapiens, UniProt P48145); assay: GPR7 antagonist potency, late-stage follow-up, cell-based, fluorescence, dose response, set 5 (AID 588566)
[52] = molecular target: T1, DNA dC->dU-editing enzyme APOBEC-3A (Homo sapiens, UniProt P31941); assay: SAR analysis of small molecule inhibitors of APOBEC3A DNA Deaminase via a fluorescence-based single-stranded DNA deaminase assay - Set 2.; details: read-out: IC50_Mean
T1 sequence (P31941 whole entry): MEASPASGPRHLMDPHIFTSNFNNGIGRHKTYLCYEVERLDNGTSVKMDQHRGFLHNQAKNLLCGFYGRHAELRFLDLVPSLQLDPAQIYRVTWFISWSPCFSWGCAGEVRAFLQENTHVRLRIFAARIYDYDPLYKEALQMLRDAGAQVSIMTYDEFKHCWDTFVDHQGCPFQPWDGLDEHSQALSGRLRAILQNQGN

[53] = molecular target: T2, Rac GTPase-activating protein 1 (Homo sapiens, UniProt Q9H0H5); assay: MgcRacGAP GTPase-activating activity inhibitors, confirmation, biochemical, ADP Hunter fluorescence, primary and confirmatory (AID 624330)
T2 sequence (Q9H0H5 whole entry): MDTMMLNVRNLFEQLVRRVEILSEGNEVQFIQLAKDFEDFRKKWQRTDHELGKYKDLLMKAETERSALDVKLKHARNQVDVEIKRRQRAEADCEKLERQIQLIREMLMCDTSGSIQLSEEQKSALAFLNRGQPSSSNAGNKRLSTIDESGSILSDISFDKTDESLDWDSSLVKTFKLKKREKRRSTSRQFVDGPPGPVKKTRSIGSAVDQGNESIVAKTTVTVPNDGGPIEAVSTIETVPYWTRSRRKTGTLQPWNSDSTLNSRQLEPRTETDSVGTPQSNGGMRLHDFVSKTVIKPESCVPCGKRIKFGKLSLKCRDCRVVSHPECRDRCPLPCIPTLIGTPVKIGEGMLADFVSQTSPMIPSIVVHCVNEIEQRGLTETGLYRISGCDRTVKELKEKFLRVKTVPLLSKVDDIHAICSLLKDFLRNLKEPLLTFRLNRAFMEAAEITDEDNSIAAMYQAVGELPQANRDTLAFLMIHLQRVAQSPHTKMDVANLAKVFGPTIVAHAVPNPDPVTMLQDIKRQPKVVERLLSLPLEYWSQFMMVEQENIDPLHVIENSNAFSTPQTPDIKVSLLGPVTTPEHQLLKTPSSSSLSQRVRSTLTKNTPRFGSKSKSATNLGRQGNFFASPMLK

[54] = molecular target: T3, DNA dC->dU-editing enzyme APOBEC-3G (Homo sapiens, UniProt Q9HC16); assay: Dose Response confirmation of small molecule APOBEC3G DNA Deaminase Inhibitors via a fluorescence-based single-stranded DNA deaminase assay. [Related pubchem assays (depositor defined):AID493012, AID493028]
T3 sequence (Q9HC16 whole entry): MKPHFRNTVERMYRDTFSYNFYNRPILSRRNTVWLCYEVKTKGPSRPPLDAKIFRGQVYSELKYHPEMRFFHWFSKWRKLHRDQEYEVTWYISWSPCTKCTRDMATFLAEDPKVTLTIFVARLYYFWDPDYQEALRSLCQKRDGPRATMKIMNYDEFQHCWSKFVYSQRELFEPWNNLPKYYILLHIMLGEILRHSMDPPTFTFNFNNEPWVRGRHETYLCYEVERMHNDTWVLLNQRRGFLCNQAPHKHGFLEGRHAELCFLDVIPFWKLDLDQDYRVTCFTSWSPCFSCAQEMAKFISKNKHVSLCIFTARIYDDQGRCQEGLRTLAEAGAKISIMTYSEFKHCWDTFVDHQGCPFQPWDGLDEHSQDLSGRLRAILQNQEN

[55] = molecular target: T1, DNA dC->dU-editing enzyme APOBEC-3A; assay: APOBEC3A DNA deaminase inhibitors, dose response, biochemical (AID 504722)
[56] = molecular target: T3, DNA dC->dU-editing enzyme APOBEC-3G; assay: SAR analysis of small molecule inhibitors of APOBEC3G DNA Deaminase via a fluorescence-based single-stranded DNA deaminase assay - Set 2.; details: read-out: IC50_Mean

Cc1cc(O)nc2[nH]nc(-c3cccc(-c4ccc(Cl)cc4)c3)c12
Ki [1]: > 2.51 µM (inactive) | Ki [2]: > 3.98 µM (inactive) | Ki [3]: > 3.16 µM (inactive) | Ki [4]: > 3.98 µM (inactive) | Ki [5]: > 3.16 µM (inactive) | Ki [6]: > 3.98 µM (inactive) | Ki [7]: > 5.01 µM (inactive) | Ki [8]: > 6.31 µM (inactive) | Ki [9]: > 2.51 µM (inactive) | Ki [10]: > 6.31 µM (inactive) | Ki [11]: 1.58 µM (active) | Ki [12]: > 3.98 µM (inactive) | Ki [13]: > 1.58 µM (inactive) | Ki [14]: > 3.98 µM (inactive) | Ki [15]: > 6.31 µM (inactive) | Ki [16]: > 3.98 µM (inactive) | Ki [17]: > 3.16 µM (inactive) | Ki [18]: > 2.51 µM (inactive) | Ki [19]: > 3.98 µM (inactive) | Ki [20]: > 3.98 µM (inactive) | Ki [21]: > 5.01 µM (inactive) | Ki [22]: > 100 µM (inactive) | Ki [23]: > 3.98 µM (inactive) | Ki [24]: > 2.51 µM (inactive) | Ki [25]: 0.00631 µM (active) | Ki [26]: > 6.31 µM (inactive) | Ki [27]: > 7.94 µM (inactive) | Ki [28]: > 2.51 µM (inactive) | Ki [29]: > 3.98 µM (inactive) | Ki [30]: > 3.98 µM (inactive) | Ki [31]: > 2.51 µM (inactive) | Ki [32]: > 2.51 µM (inactive) | Ki [33]: > 5.01 µM (inactive) | Ki [34]: > 3.98 µM (inactive) | Ki [35]: > 1.58 µM (inactive) | Ki [36]: > 3.16 µM (inactive) | Ki [37]: > 3.16 µM (inactive) | Ki [38]: > 3.16 µM (inactive) | Ki [39]: > 5.01 µM (inactive) | Ki [40]: > 2 µM (inactive) | Ki [41]: > 6.31 µM (inactive) | Ki [42]: > 2.51 µM (inactive) | Ki [43]: > 2.51 µM (inactive) | Ki [44]: > 3.98 µM (inactive) | Ki [45]: > 3.98 µM (inactive) | Ki [46]: > 1.26 µM (inactive) | Ki [47]: > 3.16 µM (inactive) | Ki [48]: > 5.01 µM (inactive) | Ki [49]: > 3.98 µM (inactive)

CN(C)C(=O)c1ccc(Oc2c(Cl)cnn(Cc3cccc4ccccc34)c2=O)cc1
IC50 [50]: 7.88 µM (active) | IC50 [51]: 9.29 µM (active)

O=c1c2ccccc2n2c(=S)[nH]nc2n1-c1ccccc1
IC50 [52]: > 99 µM (inactive) | IC50 [53]: 25.8 µM (active) | IC50 [54]: 4.67 µM (active) | IC50 [55]: > 100 µM (inactive) | IC50 [56]: 0.376 µM (active)
